Data on 30 molecules can be found in patent US20060004197A1, “Sulfonamide-based compounds as protein tyrosine kinase inhibitors” (priority 2004, published 2006).

This test has as its target T1, Recombinant human Src (Homo sapiens, UniProt P12931).
T1 construct: made in house; host or cells: baculovirus-insect cell system
Kind of test: Src tyrosine kinase activity, poly E4Y / 32P-ATP phosphorylation assay. Type of test: biochemical. Conditions: for inhibition at 50 µg/mL: compound at 50 μg/mL (starred values), read-out: % Inhibition Src (%), * = assayed at 50 μg/mL. As to the method: Recombinant human Src was expressed using the baculovirus-insect cell system and purified as published (Budde et al., 1993 and 2000).
The tyrosine kinase activity of Src, Csk and FGFr was determined using poly E4Y and ^32P-ATP. Briefly, enzymes were assayed in a reaction mixture consisting of 0.15 M EPPS-NaOH (pH 8.0) with 6 mM MgCl2, 0.2 mM γ^32P-ATP (0.2-0.4 mCi/μmol), 10% glycerol, 0.1% Triton X-100, and poly E4Y. Poly E4Y is a synthetic peptide whose phosphorylation is measured in this assay by the addition of the radioactively labeled phosphate from the ATP (Budde et al., 1995). […] When ATP was varied (0, 50, 100 and 250 μM), poly E4Y was kept constant at 150 μg/ml.

Where [1] appears, read: Table 3, compound at 15 μg/mL, read-out: % Inhibition at 15 μg/mL Src (%).
The mark [2] stands for this setting: Table 4, Formula III compounds, NI = no inhibition at 100 μg/mL.
Where [3] appears, read: poly E4Y / 32P-ATP, Formula IV compounds.
[4] abbreviates: Table 2, compound at 15 ug/mL, read-out: % Inhibition at 15 ug/mL Src (%).
The mark [5] stands for this setting: compound at 15 μg/mL, read-out: % Inhibition at 15 μg/mL Src %.
[6] abbreviates: Table 2, Formula I compounds, NI = no inhibition at 100 μg/mL.
Where [7] appears, read: Table 3, Formula II compounds, NI = no inhibition at 100 μg/mL.

The structures appear in SMILES notation. Like-named read-outs stand apart in the source and are kept apart here.

T1 sequence (P12931 whole entry): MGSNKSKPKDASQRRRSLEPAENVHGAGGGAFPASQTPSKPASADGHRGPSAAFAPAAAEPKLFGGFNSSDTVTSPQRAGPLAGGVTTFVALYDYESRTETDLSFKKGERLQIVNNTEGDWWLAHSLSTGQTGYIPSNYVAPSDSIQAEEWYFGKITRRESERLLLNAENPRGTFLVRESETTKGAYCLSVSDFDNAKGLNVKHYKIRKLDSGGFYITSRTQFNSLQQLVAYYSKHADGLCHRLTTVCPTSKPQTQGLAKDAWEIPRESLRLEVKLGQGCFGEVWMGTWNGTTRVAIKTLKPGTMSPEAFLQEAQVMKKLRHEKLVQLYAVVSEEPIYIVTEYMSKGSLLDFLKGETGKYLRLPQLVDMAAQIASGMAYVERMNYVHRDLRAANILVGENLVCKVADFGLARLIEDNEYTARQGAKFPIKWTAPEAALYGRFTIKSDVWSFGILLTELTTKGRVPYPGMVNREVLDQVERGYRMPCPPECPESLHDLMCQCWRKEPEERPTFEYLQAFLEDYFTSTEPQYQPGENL

With `Cc1ccc(S(=O)(=O)Nc2ccc(C(=O)NCC(C)(C)CO)cc2NS(=O)(=O)c2ccc(C)cc2)cc1` [Compound 22f, N-(3-hydroxy-2,2-dimethyl-propyl)-3,4-bis-(4-toluenesulfonylamino)-benzamide], under setting [1], the inhibition at 15 µg/mL amounted to 3%.

Consider `COc1ccc(Oc2cc(NS(=O)(=O)c3ccc(C)cc3)c(NS(=O)(=O)c3ccc(C)cc3)cc2C)cc1` [Compound 37, N-[4-(4-methoxy-phenoxy)-5-methyl-2-(4-toluenesulfonylamino)-phenyl]-4-toluenesulfonamide], for which the concentration for half-maximal inhibition (IC50) under setting [2] is 118 µM.

Take `COc1ccc(Oc2ccc(NS(=O)(=O)c3ccc(C)cc3)c(CN)c2)cc1` [Compound 71n, N-[2-aminomethyl-4-(4-methoxy-phenoxy)-phenyl]-4-toluenesulfonamide]: the IC50 under setting [3] is 1300 µM.

As for `Cc1ccc(S(=O)(=O)Nc2cc(NCc3ccccn3)c([N+](=O)[O-])cc2NS(=O)(=O)c2ccc(C)cc2)cc1` [Compound 9e, N-[5-nitro-4-[(pyridin-2-ylmethyl)-amino]-2-(4-toluenesulfonylamino)-phenyl]-4-toluenesulfonamide], the inhibition at 15 µg/mL under setting [4] was found to be 15%.

On to `COc1ccc(Oc2cc(N)c(NS(=O)(=O)c3ccc(C)cc3)cc2[N+](=O)[O-])cc1` [Compound 71cc, N-[2-amino-4-(4-methoxy-phenoxy)-5-nitro-phenyl]-4-toluenesulfonamide], for which the inhibition at 15 µg/mL under setting [5] came to 15%.

As for `Cc1ccc(S(=O)(=O)Nc2cc(N3CCSCC3)c([N+](=O)[O-])cc2NS(=O)(=O)c2ccc(C)cc2)cc1` [Compound 9c, N-[5-nitro-4-(thiomorpholin-4-yl)-2-(4-toluenesulfonylamino)-phenyl]-4-toluenesulfonamide], the inhibition at 15 µg/mL under setting [4] stood at 15%.

`Cc1ccc(S(=O)(=O)Nc2cc(NCc3cccnc3)c([N+](=O)[O-])cc2NS(=O)(=O)c2ccc(C)cc2)cc1` [Compound 9d, N-[5-nitro-4-[(pyridin-3-ylmethyl)-amino]-2-(4-toluenesulfonylamino)-phenyl]-4-toluenesulfonamide]: under setting [6], the IC50 was above 176 µM. For the same molecule, the inhibition at 50 µg/mL (Table 2) was 19%.

With `COc1ccc(Oc2ccc(NC(=O)c3ccc(C(F)(F)F)nc3)c(NS(=O)(=O)c3ccc(C)cc3)c2)cc1` [Compound 71c, N-[4-(4-methoxy-phenoxy)-2-(4-toluenesulfonylamino)-phenyl]-6-trifluoromethyl-nicotinamide], under setting [5], the inhibition at 15 µg/mL amounted to 5%.

With `Cc1ccc(S(=O)(=O)Nc2cc(F)c(S(=O)(=O)Cc3ccccc3Cl)cc2NS(=O)(=O)c2ccc(C)cc2)cc1` [Compound 38d, N-[4-(2-chloro-phenylmethanesulfonyl)-5-fluoro-2-(4-toluenesulfonylamino)-phenyl]-4-toluenesulfonamide], the half-maximal inhibitory concentration (IC50) under setting [2] was determined as 13 µM.

With `Cc1ccc(C(=O)Nc2cc(NCC3CCCCC3)c([N+](=O)[O-])cc2NC(=O)c2ccc(C)cc2)cc1` [Compound 71aa, N-[4-(cyclohexylmethyl-amino)-5-nitro-2-(4-toluoylamino)-phenyl]-4-toluamide], the inhibition at 15 µg/mL under setting [5] amounted to 0%.

With `COc1ccc(Oc2ccc(NS(=O)(=O)c3ccc(C)cc3)c(CNC(=O)c3ccc(C)cc3)c2)cc1` [Compound 71p, N-[5-(4-methoxy-phenoxy)-2-(4-toluenesulfonylamino)-benzyl]-4-toluamide], the IC50 under setting [3] came out at 108 µM.

Take `COc1ccc(Oc2ccc(NS(=O)(=O)c3sc(NC(C)=O)nc3C)c(NS(=O)(=O)c3ccc(C)cc3)c2)cc1` [Compound 22q, N-{5-[4-(4-methoxy-phenoxy)-2-(4-toluenesulfonylamino)-phenylsulfamoyl]-4-methyl-thiazol-2-yl}-acetamide]: the IC50 under setting [7] amounted to 154 µM.

As to `COc1ccc(Oc2ccc(NS(=O)(=O)c3cnc(Cl)c(Br)c3)c(NS(=O)(=O)c3ccc(C)cc3)c2)cc1` [Compound 22t, 5-bromo-6-chloro-N-[4-(4-methoxy-phenoxy)-2-(4-toluenesulfonylamino)-phenyl]-pyridine-3-sulfonamide], the half-inhibitory concentration (IC50) under setting [7] worked out at 44 µM.

Turning to `COc1ccc(Oc2ccc3[nH]c(=O)[nH]c3c2)cc1` [Compound 72e, 5-(4-methoxy-phenoxy)-1,3-dihydro-benzoimidazol-2-one], where the note is “Table 6, Formula V compounds, compound at 15 μg/mL, read-out: % Inhibition at 15 μg/mL Src (%)”, the inhibition at 15 µg/mL was found to be 4%.

Consider `COc1ccc(Oc2ccc(NS(=O)(=O)c3ccc(C)cc3)c(N=Cc3ccc4ccccc4n3)c2)cc1` [Compound 71u, N-{4-(4-methoxy-phenoxy)-2-[(quinolin-2-ylmethylene)-amino]-phenyl}-4-toluenesulfonamide], for which the inhibition at 15 µg/mL under setting [5] came out at 6%.

For `COc1ccc(CCNC(=O)c2ccc(NS(=O)(=O)c3ccc(C)cc3)c(NS(=O)(=O)c3ccc(C)cc3)c2)cc1` [Compound 22b, N-[2-(4-methoxy-phenyl)-ethyl]-3,4-bis-(4-toluenesulfonylamino)-benzamide], under setting [1], the inhibition at 15 µg/mL was determined as 25%.

In the case of `Cc1ccc(S(=O)(=O)Nc2ccc(CO)cc2NS(=O)(=O)c2ccc(C)cc2)cc1` [Compound 22l], under “Table 3, compound at 15 μg/mL”, the “% Inhibition at 15 μg/mL Src (%)” value is given as 5%.

Consider `COc1ccc(Oc2ccc(NS(=O)(=O)c3ccc(C)cc3)c(NS(C)(=O)=O)c2)cc1` [Compound 22m, N-[2-methanesulfonylamino-4-(4-methoxy-phenoxy)-phenyl]-4-toluenesulfonamide], for which, under setting [1], the inhibition at 15 µg/mL worked out at 22%.

On to `COc1ccc(Oc2ccc(NS(=O)(=O)c3ccc(S(C)(=O)=O)cc3)c(NS(=O)(=O)c3ccc(C)cc3)c2)cc1` [Compound 22z, 4-methanesulfonyl-N-[4-(4-methoxy-phenoxy)-2-(4-toluenesulfonylamino)-phenyl]-benzenesulfonamide], for which the IC50 under setting [7] was 174 µM.

Turning to `COc1ccc(Oc2ccc(NS(=O)(=O)c3cccc(OC)c3)c(NS(=O)(=O)c3ccc(C)cc3)c2)cc1` [Compound 22aa, 3-methoxy-N-[4-(4-methoxy-phenoxy)-2-(4-toluenesulfonylamino)-phenyl]-benzenesulfonamide], the concentration for half-maximal inhibition (IC50) under setting [7] came to 133 µM.

As for `CCc1ccc(NS(=O)(=O)c2ccc(OC)cc2NS(=O)(=O)c2ccc(C)cc2)cc1` [Compound 71mm, N-(4-ethyl-phenyl)-4-methoxy-2-(4-toluenesulfonylamino)-benzenesulfonamide], the inhibition at 15 µg/mL under setting [5] was 19%.

Take `Cc1ccc(S(=O)(=O)Nc2cc(N3CCOCC3)c([N+](=O)[O-])cc2NS(=O)(=O)c2ccc(C)cc2)cc1` [Compound 9a, N-[4-(morpholin-4-yl)-5-nitro-2-(4-toluenesulfonylamino)-phenyl]-4-toluenesulfonamide]: under “Table 2”, the inhibition at 50 µg/mL amounted to 13%.

Regarding `Cc1ccc(S(=O)(=O)Nc2cc(NCc3ccccc3Cl)c([N+](=O)[O-])cc2NS(=O)(=O)c2ccc(C)cc2)cc1` [Compound 9g, N-[4-(2-chloro-benzylamino)-5-nitro-2-(4-toluenesulfonylamino)-phenyl]-4-toluenesulfonamide], under setting [6], the IC50 is 54 µM. For the same molecule, under setting [4], the inhibition at 15 µg/mL came out at 65%.

As for `COc1ccc(Oc2ccc(NS(=O)(=O)c3ccc(Cl)c4nonc34)c(NS(=O)(=O)c3ccc(C)cc3)c2)cc1` [Compound 22u, 7-chloro-N-[4-(4-methoxy-phenoxy)-2-(4-toluenesulfonylamino)-phenyl]-benzo[1,2,5]oxadiazole-4-sulfonamide], the IC50 under setting [7] amounted to 20 µM.

Consider `COc1ccc(Oc2cc(NS(=O)(=O)c3ccc(C)cc3)c(N)cc2C(F)(F)F)cc1` [Compound 71gg, N-[2-amino-5-(4-methoxy-phenoxy)-4-trifluoromethyl-phenyl]-4-toluenesulfonamide], for which the inhibition at 15 µg/mL under setting [5] is 19%.

Consider `COc1ccc(OCc2ccc(CN)c(NS(=O)(=O)c3ccc(C)cc3)c2)cc1` [Compound 71w, N-[2-aminomethyl-5-(4-methoxy-phenoxymethyl)-phenyl]-4-toluenesulfonamide], for which the inhibition at 15 µg/mL under setting [5] amounted to 9%.

In the case of `COc1ccc(Oc2ccc(NS(=O)(=O)c3ccc(C)cc3)c(NS(=O)(=O)CCc3cccc4ccccc34)c2)cc1` [Compound 22ee, N-[4-(4-methoxy-phenoxy)-2-(2-naphthalen-1-yl-ethanesulfonylamino)-phenyl]-4-toluenesulfonamide], the half-inhibitory concentration (IC50) under setting [7] worked out at 50 µM.

For `COc1ccc(Oc2ccc(NS(=O)(=O)c3ccc(C)cc3)c(NS(=O)(=O)c3ccc(Br)s3)c2)cc1` [Compound 22gg, 5-bromo-N-[5-(4-methoxy-phenoxy)-2-(4-toluenesulfonylamino)-phenyl]-thiophene-2-sulfonamide], the IC50 under setting [7] was 24 µM.

`Cc1ccc(S(=O)(=O)Nc2ccc(SCc3ccccc3Cl)cc2NS(C)(=O)=O)cc1` [Compound 22nn, N-[4-(2-chloro-benzylsulfanyl)-2-methanesulfonylamino-phenyl]-4-toluenesulfonamide]: the inhibition at 15 µg/mL under setting [1] is 21%.

Turning to `COc1ccc(OCc2ccc(CNS(C)(=O)=O)c(NS(=O)(=O)c3ccc4cc(C)ccc4c3)c2)cc1` [Compound 71x, N-[2-(methanesulfonylamino-methyl)-5-(4-methoxy-phenoxymethyl)-phenyl]-6-methyl-naphthalene-2-sulfonamide], under setting [5], the inhibition at 15 µg/mL was 20%.
